Assay results reported in ChEMBL document CHEMBL1150661, “Panepophenanthrin, from a mushroom strain, a novel inhibitor of the ubiquitin-activating enzyme” (J Nat Prod, 2002).

Target: T1, Ubiquitin-like modifier-activating enzyme 1 (Homo sapiens, UniProt P22314)
T1 sequence (P22314 whole entry): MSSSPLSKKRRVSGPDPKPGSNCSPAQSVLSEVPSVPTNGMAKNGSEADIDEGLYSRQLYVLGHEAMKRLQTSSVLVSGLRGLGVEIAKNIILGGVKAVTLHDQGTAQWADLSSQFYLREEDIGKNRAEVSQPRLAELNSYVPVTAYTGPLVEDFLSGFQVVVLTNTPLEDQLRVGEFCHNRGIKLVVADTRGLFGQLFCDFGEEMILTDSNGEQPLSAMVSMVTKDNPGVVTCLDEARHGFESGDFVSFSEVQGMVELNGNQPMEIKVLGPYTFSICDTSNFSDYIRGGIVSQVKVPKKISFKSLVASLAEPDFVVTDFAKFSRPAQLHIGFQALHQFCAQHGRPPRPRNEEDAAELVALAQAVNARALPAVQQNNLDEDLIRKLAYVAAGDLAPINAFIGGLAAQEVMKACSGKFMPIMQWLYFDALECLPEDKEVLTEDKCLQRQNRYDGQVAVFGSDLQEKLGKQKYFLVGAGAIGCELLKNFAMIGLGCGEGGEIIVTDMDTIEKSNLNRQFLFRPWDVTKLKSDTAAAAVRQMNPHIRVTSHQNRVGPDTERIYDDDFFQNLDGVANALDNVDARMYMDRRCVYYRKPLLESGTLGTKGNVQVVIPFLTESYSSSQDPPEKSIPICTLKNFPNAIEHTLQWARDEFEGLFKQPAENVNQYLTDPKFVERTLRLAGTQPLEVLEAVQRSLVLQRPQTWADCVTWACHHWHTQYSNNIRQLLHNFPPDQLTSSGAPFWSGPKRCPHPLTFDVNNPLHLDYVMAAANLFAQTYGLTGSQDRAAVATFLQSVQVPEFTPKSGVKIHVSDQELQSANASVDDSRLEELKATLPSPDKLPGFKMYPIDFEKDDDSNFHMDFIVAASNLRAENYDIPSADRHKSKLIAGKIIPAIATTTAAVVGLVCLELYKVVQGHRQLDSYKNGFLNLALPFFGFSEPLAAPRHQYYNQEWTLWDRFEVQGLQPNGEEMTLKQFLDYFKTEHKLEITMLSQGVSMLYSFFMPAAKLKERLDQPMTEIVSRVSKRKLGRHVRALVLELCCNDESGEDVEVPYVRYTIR
Test: Inhibition of human recombinant E1-ubiquitin complex formation

- IC50: 40.4 µM
Compound: CC(C)(O)/C=C/[C@@]12[C@H]3[C@@H](O)[C@@H]4O[C@@H]4[C@]1(O)OC(C)(C)[C@@H]2C=C1C(=O)[C@H]2O[C@H]2[C@H](O)[C@H]13 [PANEPOPHENANTHRIN]
